According to article PMC10204490, “Incubation Time Influences Organic Anion Transporter 1 Kinetics and Renal Clearance Predictions” (Journal of Xenobiotics, 2023):

Experiments:
OAT1 [1] = settings: cited from earlier work
OAT1 [2] = molecular target: T1, OAT1 (Homo sapiens, UniProt Q4U2R8); test: Inhibition of [3H]PAH uptake into CHO-OAT1 cells (IC50 determination); settings: IC50 for inhibition of [3H]PAH uptake, [3H]PAH 20 nM, mean ± SEM, n=4
T1 sequence (Q4U2R8 1-563): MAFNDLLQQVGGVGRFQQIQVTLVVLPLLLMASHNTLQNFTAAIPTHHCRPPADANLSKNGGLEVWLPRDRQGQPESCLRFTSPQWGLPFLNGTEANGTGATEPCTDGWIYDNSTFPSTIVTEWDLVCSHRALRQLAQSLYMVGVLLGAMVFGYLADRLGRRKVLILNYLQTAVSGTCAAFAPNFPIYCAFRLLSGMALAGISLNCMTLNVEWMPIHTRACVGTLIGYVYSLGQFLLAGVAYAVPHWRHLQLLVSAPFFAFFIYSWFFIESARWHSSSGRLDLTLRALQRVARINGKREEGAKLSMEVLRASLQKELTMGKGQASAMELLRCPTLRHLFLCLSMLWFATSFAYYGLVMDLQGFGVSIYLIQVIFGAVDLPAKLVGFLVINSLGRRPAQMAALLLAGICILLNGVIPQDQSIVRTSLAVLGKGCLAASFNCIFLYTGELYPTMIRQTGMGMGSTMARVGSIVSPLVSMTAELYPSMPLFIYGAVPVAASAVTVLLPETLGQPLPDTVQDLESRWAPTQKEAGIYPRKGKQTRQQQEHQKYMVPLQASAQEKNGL
Protocol: All cells were grown to confluence in 24-well flat bottom plates for transport experiments.
Transport experiments involved aspirating the media, rinsing the cells quickly once with WB (0.4 mL), and then adding the transport solution (0.4 mL) to the wells for an amount of time as indicated in the figure legends. Uptake was stopped by aspirating the transport buffer and rinsing the wells three times with ice-cold WB (0.4 mL). The cells were lysed in 0.5 N NaOH/1% sodium dodecyl sulfate (0.4 mL) for 30 min on an orbital shaker and the lysates neutralized with 1 N HCl (0.2 mL). […] Several wells not used for transport were used for determining the number of cells per well with a hemocytometer.
As above, transport inhibition experiments involved aspirating the media, rinsing the cells quickly once with WB (0.4 mL), and then adding the transport solution (0.4 mL) to the wells for an amount of time as indicated in the figure legends.
[I] is the concentration of inhibitor in the transport solution. […] Japp is the apparent maximal transport rate, and C has the same meaning as noted above.

[3] = cited from earlier work
[4] = design: method as in earlier work; settings: cited from earlier work
[5] = design: method as in earlier work; settings: measured; cited from earlier work
OAT1 [6] = molecular target: T1, OAT1; test: Telmisartan pre-incubation and washout recovery of [3H]PAH uptake in CHO-OAT1 cells

## COc1ccc2c(c1)c(CC(=O)O)c(C)n2C(=O)c1ccc(Cl)cc1 [Indomethacin, indomethacin]
OAT1 [1]
  Inhibition mechanism at OAT1: competitive

## COc1ccc2[nH]c([S+]([O-])Cc3ncc(C)c(OC)c3C)nc2c1 (stereo not shown) [Omeprazole, omeprazole]
OAT1 [1]
  Inhibition mechanism at OAT1: mixed-type
OAT1 [2]; 15 sec incubation
  IC50: 9.7 ± 0.8 µM
OAT1 [2]; 10 min incubation
  IC50: 9.2 ± 0.8 µM

## Nc1ccc(C(=O)NCC(=O)O)cc1 [PAH, Para-aminohippurate]
[3]; 10 mg ∙ kg-1 intravenous dose
  Clinically-observed plasma clearance (CLi.v.): 40.6 L/h
[3]
  Observed Vss: 0.23 L/kg
  Percentage of the dose excreted into the urine as acetyl-PAH: ~ 10%
[3]; human subjects, probenecid 1 g oral dose
  Reduction in plasma clearance of PAH by co-administered probenecid: 1.8 fold
[4]
  LogP: -2.2
  pKa: 3.83
[5]
  Fraction unbound in plasma (fup): 0.83

## CCCc1nc2c(C)cc(-c3nc4ccccc4n3C)cc2n1Cc1ccc(-c2ccccc2C(=O)O)cc1 [Telmisartan, telmisartan]
OAT1 [1]
  Inhibition mechanism at OAT1: non-competitive
OAT1 [2]; 15 sec incubation
  IC50: 0.4 ± 0.07 µM
OAT1 [2]; 10 min incubation
  IC50: 0.06 ± 0.02 µM
OAT1 [6]; 30 min pre-treatment with telmisartan 0.5 µM, washout in WB with 10% FBS, single experiment
  Reversibility of OAT1 inhibition after washout: reversible, albeit slowly
OAT1 [6]; telmisartan 10, 50, 100 or 200 nM, pre-incubation 1, 5, 10 or 30 min, [3H]PAH uptake 15 s
  Effect of pre-incubation time on OAT1 transport activity: decreased with increasing pre-incubation times
